In publication PMC9080270 (RSC Advances, 2018):

Molecular target: T1, adenosine A1 receptor (A1AR) (Homo sapiens, UniProt P30542)
T1 sequence (P30542 1-326): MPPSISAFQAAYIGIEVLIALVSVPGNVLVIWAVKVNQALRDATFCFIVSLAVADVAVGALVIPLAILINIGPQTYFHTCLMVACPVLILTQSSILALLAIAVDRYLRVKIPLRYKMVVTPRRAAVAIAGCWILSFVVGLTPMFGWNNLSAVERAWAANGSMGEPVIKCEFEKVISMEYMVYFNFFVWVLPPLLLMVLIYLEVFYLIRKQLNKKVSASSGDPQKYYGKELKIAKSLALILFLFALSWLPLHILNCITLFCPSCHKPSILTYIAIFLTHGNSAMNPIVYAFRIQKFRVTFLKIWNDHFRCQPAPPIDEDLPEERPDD
Experiment: NanoBRET saturation binding in HEK293 cells
Format: cell-based

Kd: 110 nM
Substance: CA200645
